Publication PMC12116762, “Topobexin targets the Topoisomerase II ATPase domain for beta isoform-selective inhibition and anthracycline cardioprotection” (Nature Communications, 2025)

Tests used:
[1] = system: neonatal rat ventricular cardiomyocytes (NVCM); test: Inherent toxicity (LDH release) in NVCM; assay type: cell-based; set-up: key to LDH release (inherent toxicity), mean of independent replicates: % of total LDH activity; conditions: NVCM; for LTC = lowest toxic concentration: compound alone, n=4; for LDH release (inherent toxicity), mean of independent replicates: Suppl.Fig.4
Description: (§1) The protective effects of the BNS-22 and newly prepared compounds were evaluated using primary cultures of neonatal rat cardiomyocytes isolated in house as previously described. Hearts isolated from 1- to 3-day-old Wistar rats were minced in buffer (1.2 mM MgSO4 · 7H2O, 116 mM NaCl, 5.3 mM KCl, 1.13 mM NaH2PO4 · H2O, 20 mM 4-(2-hydroxyethyl)-1-piperazine ethanesulfonic acid (HEPES), glucose 1 mg/mL) on ice, then serially digested (20 min, six repetitions) at 37 °C with collagenase type II (60 U/mL, Gibco). After 2 h pre-plating in a 150 mm Petri dish per approximately 20 hearts to minimize non-myocyte contamination, cells were plated in 24-well gelatin-coated plates at a density of 400,000 cells per well. Cells were cultured at 37 °C and 5% CO2 in Dulbecco’s modified Eagle medium (DMEM)/ F12 culture medium supplemented with 10% horse serum, 5% fetal bovine serum (FBS), 20 mM sodium pyruvate, 50 U/mL penicillin, and 50 μg/mL streptomycin. Freshly isolated cells were left for 40 h to attach and form a culture of spontaneously beating cardiomyocytes, then the medium was changed to DMEM/F12 medium supplemented with 5% fetal bovine serum, 20 mM sodium pyruvate, 50 U/mL penicillin, and 50 μg/mL streptomycin. For the experiments, the medium was changed to serum- and pyruvate-free DMEM/F12 with 50 U/mL penicillin and 50 μg/mL streptomycin. Cardiomyocytes were pretreated with BNS-22 or new compounds for 3 h and then coincubated with DAU (1.2 µM) for another 3 h. After the DAU treatment period, the culture medium was exchanged for the drug-free DMEM/F12 with 50 U/mL penicillin and 50 μg/mL streptomycin for the 48 h follow-up. Experiments to determine the inherent toxicity of each compound studied follow the same schedule, only no DAU was added. Subsequently, the culture medium sample was taken from each well for evaluation of lactate dehydrogenase (LDH) activity. The total LDH activity of each sample for normalization was measured after 1 h of incubation at 37 °C in lysis buffer (0.1 M potassium phosphate, 1% Triton X-100, 1 mM dithiothreitol (DTT), 2 mM EDTA, pH 7.8, 15 min in RT). All samples were immediately analyzed in Tris HCl buffer (pH 8.9) containing 35 mM lactic acid and 5 mM NAD^+. The rate of NAD^+ reduction was monitored spectrophotometrically at 340 nm for 2 min. The slope of the linear region was calculated, and the results were expressed as a percentage of the total LDH. Each presented data point was obtained from distinct sample.

[2] = system: neonatal rat ventricular cardiomyocytes (NVCM); test: Protection against DAU-induced cytotoxicity (LDH release) in NVCM; assay type: cell-based; set-up: key to Suppl.Fig.3 DAU-induced cytotoxicity (LDH release) in NVCM, mean of independent replicates / LDH release (DAU-induced cytotoxicity), mean of independent replicates: % of total LDH activity; conditions: for minimal effective concentration: Rattus norvegicus, Cardiomyocyte, NVCM, protection against DAU 1.2 µM, n=4, read-out: LEC = lowest effective concentration
Description: as §1

SMILES | LTC = lowest toxic concentration [1] [µM] | LDH release (inherent toxicity), mean of independent replicates ([1]; compound alone 0.1 µM) | LDH release (inherent toxicity), mean of independent replicates ([1]; compound alone 1 µM) | LDH release (inherent toxicity), mean of independent replicates ([1]; compound alone 10 µM) | LDH release (inherent toxicity), mean of independent replicates ([1]; compound alone 30 µM) | LDH release (inherent toxicity), mean of independent replicates ([1]; compound alone 100 µM) | minimal effective concentration [2] [µM] | Suppl.Fig.3 DAU-induced cytotoxicity (LDH release) in NVCM, mean of independent replicates ([2]; compound 0.1 µM + DAU 1.2 µM) | Suppl.Fig.3 DAU-induced cytotoxicity (LDH release) in NVCM, mean of independent replicates ([2]; compound 1 µM + DAU 1.2 µM) | Suppl.Fig.3 DAU-induced cytotoxicity (LDH release) in NVCM, mean of independent replicates ([2]; compound 10 µM + DAU 1.2 µM) | Suppl.Fig.3 DAU-induced cytotoxicity (LDH release) in NVCM, mean of independent replicates ([2]; compound 30 µM + DAU 1.2 µM) | Suppl.Fig.3 DAU-induced cytotoxicity (LDH release) in NVCM, mean of independent replicates ([2]; compound 100 µM + DAU 1.2 µM) | LDH release (inherent toxicity), mean of independent replicates ([1]; compound alone 3 µM) | Suppl.Fig.3 DAU-induced cytotoxicity (LDH release) in NVCM, mean of independent replicates ([2]; compound 3 µM + DAU 1.2 µM) | LDH release (inherent toxicity), mean of independent replicates ([1]; compound alone 0.01 µM) | Suppl.Fig.3 DAU-induced cytotoxicity (LDH release) in NVCM, mean of independent replicates ([2]; compound 0.01 µM + DAU 1.2 µM)
CCCCc1cc(=O)oc2c(C(=O)N3CCCc4ccccc43)c(OC)cc(OC)c12 [1d] | 30 | 14.3468 | 13.6854 | 20.4098 | 50.8474 | 76.157 | 1 | 44.1431 | 30.0603 | 34.1459 | 74.3781 | 88.2455 |  |  |  | 
Cc1cc(=O)oc2c(C(=O)N3CCCc4ccccc43)c(O)ccc12 [2a] |  |  |  | 13.7502 | 15.9605 | 17.1189 |  |  |  | 37.2223 | 39.137 | 42.8636 |  |  |  | 
CCc1cc(=O)oc2c(C(=O)N3CCCc4ccccc43)c(O)ccc12 [2b] |  |  |  | 17.3516 | 18.0926 | 18.5764 |  |  |  | 31.7392 | 34.9042 | 31.3386 |  |  |  | 
COc1ccc2c(C)cc(=O)oc2c1C(=O)N1CCCc2ccccc21 [3a] | > 10 |  | 18.1168 | 15.937 |  |  |  |  | 38.7802 | 36.7927 |  |  | 15.6047 | 37.7536 |  | 
CCc1cc(=O)oc2c(C(=O)N3CCCc4ccccc43)c(OC)ccc12 [3b] | > 10 |  | 16.0681 | 15.3649 |  |  |  |  | 33.4469 | 31.9857 |  |  | 15.619 | 35.1015 |  | 
CCCCc1cc(=O)oc2c(C(=O)N3CCCc4ccccc43)c(OC)ccc12 [3d] | > 30 | 14.1948 | 16.3261 | 19.5649 | 19.0356 |  | 1 | 40.2805 | 35.9225 | 25.0218 | 30.6397 |  |  |  | 14.5175 | 50.7769
CCCOc1ccc2c(C)cc(=O)oc2c1C(=O)N1CCCc2ccccc21 [4a] | > 30 | 13.7469 | 13.1211 | 16.3565 | 19.993 |  | 10 | 45.8753 | 42.086 | 32.6284 | 30.3987 |  |  |  |  | 
CCCOc1ccc2c(CC)cc(=O)oc2c1C(=O)N1CCCc2ccccc21 [4b] |  | 14.2064 | 13.8348 | 17.7301 | 17.7791 | 17.3487 | 0.1 | 43.0735 | 30.3899 | 27.961 | 25.8835 | 28.6308 |  |  | 14.7625 | 47.614
CCCCc1cc(=O)oc2c(C(=O)N3CCCc4ccccc43)c(OCCC)ccc12 [4d] | 10 | 15.2686 | 16.9179 | 31.7424 | 60.5761 | 70.9323 | 1 | 31.1377 | 25.022 | 40.2951 | 73.3675 | 78.9691 |  |  | 17.8445 | 36.4234
Cc1cc(=O)oc2c(C(=O)N3CCCc4ccccc43)c(OCCO)ccc12 [5a] |  |  | 12.9508 | 15.8869 | 14.1719 | 15.685 | 30 |  | 47.2456 | 46.8582 | 41.4003 | 38.7405 |  |  |  | 
CCCCc1cc(=O)oc2c(C(=O)N3CCCc4ccccc43)c(OCCO)ccc12 [5d] |  | 15.5556 | 15.5462 | 19.8205 | 25.0146 | 27.0966 |  | 41.2776 | 35.4099 | 33.3492 | 35.9089 | 42.7736 |  |  | 16.4804 | 44.6742
